“And” between values parts separate entries of the source, which are not always exact repeats. Equal values may be shown once. Read-outs that look alike come from different tables or passages of the source.
Assays:
canine TRPM8 = biological target: T1, canine TRPM8 (Canis lupus familiaris, UniProt Q1A7N1); test: In Vitro Canine TRPM8 Functional Assay (icilin-induced intracellular Ca2+, FLIPR/FDSS); assay type: cell-based; settings: for % Inh @ 0.2 μM: 0.2 μM compound; for IC50: icilin at approx. 80% maximal response, eight-point concentration-response
T1 construct: expressed in transfected cells
T1 sequence (Q1A7N1 1-1104): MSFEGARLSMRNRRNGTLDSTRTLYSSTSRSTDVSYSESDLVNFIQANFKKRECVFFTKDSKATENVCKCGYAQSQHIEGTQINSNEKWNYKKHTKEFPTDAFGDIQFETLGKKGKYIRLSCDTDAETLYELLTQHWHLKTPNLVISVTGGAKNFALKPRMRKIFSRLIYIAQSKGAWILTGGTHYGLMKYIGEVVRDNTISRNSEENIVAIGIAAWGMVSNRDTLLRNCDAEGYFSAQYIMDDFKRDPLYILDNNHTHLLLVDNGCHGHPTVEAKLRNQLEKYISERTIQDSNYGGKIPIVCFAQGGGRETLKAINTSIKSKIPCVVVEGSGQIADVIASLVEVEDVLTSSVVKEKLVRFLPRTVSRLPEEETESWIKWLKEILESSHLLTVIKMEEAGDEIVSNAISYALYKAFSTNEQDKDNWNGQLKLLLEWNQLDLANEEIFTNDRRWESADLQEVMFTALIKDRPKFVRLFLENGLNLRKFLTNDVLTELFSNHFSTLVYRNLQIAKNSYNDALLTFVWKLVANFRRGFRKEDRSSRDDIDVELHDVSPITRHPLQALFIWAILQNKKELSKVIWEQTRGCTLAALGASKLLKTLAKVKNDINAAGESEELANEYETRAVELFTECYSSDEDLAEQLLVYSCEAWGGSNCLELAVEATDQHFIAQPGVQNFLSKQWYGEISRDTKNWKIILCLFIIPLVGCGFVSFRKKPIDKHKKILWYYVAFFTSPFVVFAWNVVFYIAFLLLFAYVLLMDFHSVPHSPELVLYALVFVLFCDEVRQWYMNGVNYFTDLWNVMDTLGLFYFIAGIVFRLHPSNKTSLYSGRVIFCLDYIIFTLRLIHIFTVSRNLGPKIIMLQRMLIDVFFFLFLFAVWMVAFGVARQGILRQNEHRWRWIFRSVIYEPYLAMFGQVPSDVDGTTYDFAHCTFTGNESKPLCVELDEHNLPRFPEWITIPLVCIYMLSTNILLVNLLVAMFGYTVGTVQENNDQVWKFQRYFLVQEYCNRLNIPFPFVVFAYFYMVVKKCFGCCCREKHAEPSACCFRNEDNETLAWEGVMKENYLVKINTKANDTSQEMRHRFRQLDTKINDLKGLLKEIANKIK
Experimental: The functional activity of representative compounds of the formula (I) of the present invention was quantified by measuring changes in intracellular calcium concentration using a Ca^2+-sensitive fluorescent dye. The changes in fluorescent signal were monitored by a fluorescence plate reader, either a FLIPR™ (Molecular Devices) or FDSS (Hamamatsu).
HEK293 cells stably expressing canine TRPM8 were routinely grown as monolayers in Dulbecco's minimum essential medium supplemented with 10% FBS, 2 mM L-glutamine, 100 units/mL penicillin, 100 ug/mL streptomycin and 400 μg/mL G418. Cells were maintained in 5% CO2 at 37° C. At 24 hr prior to assay, cells were seeded in black wall, clear-base poly-D-lysine coated 384-well plates (BD Biosciences, NJ, USA) at a density of 5,000 cells per well in culture medium and grown overnight in 5% CO2 at 37° C. On assay day, growth media was removed, and cells were loaded with Calcium 3 Dye (Molecular Devices) for 35 min at 37° C., under 5% CO2 and then incubated for 25 min at room temperature and atmosphere. Subsequently, cells were tested for agonist-induced increases in intracellular Ca^2+ levels using FLIPR™ or FDSS. Cells were treated with compounds of the formula (I) at varying concentrations and intracellular […] was measured for 5 min prior to the addition of icilin to all wells to achieve a final concentration that produces approximately an 80% maximal response.
Basal FI was subtracted prior to normalizing data to percent of maximal response. Curves were generated using the average of quadruplicate wells for each data point using nonlinear regression of either sigmoidal dose response or sigmoidal dose response (variable slope). Finally, the EC50 and IC50 values were calculated with the best-fit curve determined by GraphPad Prism

[1] = tested on: icilin-induced "wet-dog" shakes; test: Inhibition of icilin-induced "wet-dog" shakes in rats; assay type: in vivo; settings: male Sprague Dawley rats; 10 mg/kg p.o., 60 min pre-icilin; vehicle 10% Solutol (0.5% HPMC for 47); [1-(test compound WDS count/vehicle WDS count)]x100
Experimental: Male Sprague Dawley rats ([…], Charles River Labs, n=6-9/treatment) were used to evaluate the ability of test compounds to block icilin-induced “wet-dog” shakes (WDS). The test compound was administered in an appropriate vehicle, such as hydroxypropyl-β-cyclodextrin (HP-β-CD), methocellulose, 10% Solutol, H2O or the like, by the appropriate route (e.g., i.p. or p.o.), 30-60 min before icilin. Icilin was then administered in PEG-400 or 10% solutol/H2O, at 1.0 or 3.0 mg/kg, i.p. and spontaneous “wet-dog” shakes were counted 10-20 min post-icilin.
Representative compounds of the present invention were tested at 10 mg/kg p.o. and 60 min pre-incilin, according to the procedure as described above. Results, as listed in Table 7 below, are presented as a percent inhibition of shakes, which was calculated as [1−(test compound WDS count/vehicle WDS count)]×100.

[2] = HEK293 cells stably expressing canine TRPM8, icilin activation, 0.2 µM
[3] = HEK293, 0.2 μM compound, HEK293 cells stably expressing canine TRPM8, icilin activation, read-out: % Inh @ 0.2 μM
[4] = HEK293 cells stably expressing canine TRPM8, read-out: IC50

Compound | % Inh @ 0.2 μM (canine TRPM8; [2]) [%] | inhibition at 0.2 µM (canine TRPM8; [3]) [%] | IC50 (canine TRPM8; [4]) | % Inhibition of shakes [1] [%] | inhibition at 0.2 µM (canine TRPM8; HEK293, read-out: % Inh @ 0.2 μM) [%] | IC50 (canine TRPM8; IC50, HEK293 cells stably expressing canine TRPM8) [nM] | % Inh @ 0.2 μM (canine TRPM8; HEK293 cells stably expressing canine TRPM8, icilin activation)
Cn1c(N(Cc2ccc(OC(F)(F)F)cc2)S(=O)(=O)c2ccccc2)nc2ccccc21 [Compound #6] | 100 | 101 | 1 nM and 2 nM | 20.2 |  |  | 
Cn1c(N(Cc2ccc(F)c(C(F)(F)F)c2)S(=O)(=O)c2ccccc2)nc2ccccc21 [Compound #15, N-(4-Fluoro-3-trifluoromethyl-benzyl)-N-(1-methyl-1H-benzimidazol-2-yl)-benzenesulfonamide] | 98 | 102 | 1 nM and 4 nM | 27.7 |  |  | 
CCn1c(N(Cc2ccc(C(F)(F)F)cc2)S(=O)(=O)c2ccccc2)nc2cc(F)ccc21 [Compound #47, N-(1-Ethyl-5-fluoro-1H-benzimidazol-2-yl)-N-(4-trifluoromethyl-benzyl)-benzenesulfonamide] |  |  |  | 36 | 100 | 6 | 
Cn1c(N(Cc2ccc(F)c(Cl)c2)S(=O)(=O)c2ccccc2)nc2ccccc21 [compound 20] |  | 101 | 1 nM | 32.6 |  |  | 
O=S(=O)(c1ccccc1)N(Cc1ccc(C(F)(F)F)cc1)c1nc2ccccc2n1CC(F)(F)F [compound 54] |  | 85 | 15 nM and 75 nM | 2.4 |  |  | 85, 85%
Cc1ccc2nc(N(Cc3ccc(OC(F)(F)F)cc3)S(=O)(=O)c3ccccc3)n(C)c2c1 [compound 66] |  | 98 | 21 nM |  |  |  | 
Cc1ccc2nc(N(Cc3ccc(C(F)(F)F)cc3)S(=O)(=O)c3ccccc3)n(C)c2c1 [compound 68] |  | 99 | 24 nM |  |  |  | 
O=S(=O)(c1ccccc1)N(Cc1ccc(OC(F)(F)F)cc1)c1nc2ccccc2n1CC1CC1 [compound 69] |  | 101 | 26 nM |  |  |  | 
O=S(=O)(c1ccccc1)N(Cc1ccc(C(F)(F)F)cc1)c1nc2ccccc2n1CC1CC1 [compound 70] |  | 101 | 35 nM |  |  |  | 
Cc1cc2nc(N(Cc3ccc(OC(F)(F)F)cc3)S(=O)(=O)c3ccccc3)n(C)c2cc1C [compound 74] |  | 99 | 19 nM |  |  |  | 
Cc1cc2nc(N(Cc3ccc(C(F)(F)F)c(F)c3)S(=O)(=O)c3ccccc3)n(C)c2cc1C [compound 75] |  | 101 | 28 nM |  |  |  | 
Cc1cccc2c1nc(N(Cc1ccc(C(F)(F)F)c(F)c1)S(=O)(=O)c1ccccc1)n2C [compound 76] |  | 101 | 9.4 nM |  |  |  | 

— patent US8242157B2, “Benzimidazole derivatives useful as TRPM8 channel modulators” (Janssen Pharmaceutica NV, priority 2009, dated 2012)
